Test results reported in patent publication US20130289019A1, “METHODS OF TREATING BEHAVIORIAL AND/OR MENTAL DISORDERS” (AMAZING GRACE, INC., priority 2012, published 2013).
“Also recorded” adds a separate entry of the source. Marks after values point to notes of the source that are not given here.

Tests used:
[1] = test system: glutamatergic NMDA receptor in the NAc; experiment: NMDA receptor antagonists injected into the NAc (Rada et al. 2003); assay type: in vivo; conditions: Applicant's data (Rada et al. 2003)
Source text: In the NAc, M2/M4 receptors are also located on glutamate-containing axonal terminals that originate from neurons located in corticolimbic and thalamic regions involved in depression and anxiety.

[2] = test system: ACh outflow in the NAcShell and swimming of rats; experiment: local fluoxetine infusion in NAcShell: ACh outflow and swim test; assay type: in vivo, rat
rats (NAc infusion) = experiment: swim test scores during bilateral fluoxetine infusion in the NAc; assay type: in vivo, rat
[3] = test system: rats (basal extracellular ACh in the NAcShell, swim test); experiment: chronic systemic fluoxetine: basal extracellular ACh in NAcShell and swim test; assay type: in vivo, rat
rats (NAcShell infusion) = experiment: locomotor activity in the open field after bilateral fluoxetine infusion into NAcShell; assay type: in vivo, rat
[4] = test system: rats (NAcShell injection); experiment: Porsolt swim test after injection of mAChR agonists and antagonists in the NAcShell; assay type: in vivo, rat; conditions: for Drug (sec), mean swimming time / Percent change of swimming time vs Ringer / Time diff (sec), drug vs Ringer: 600 sec swim test
Protocol: FIG. 3 is a graph illustrating swimming time following injections of cholinergic drugs in NAc (black bars), compared to Ringer (white bars). (A) Local injection of arecoline, a muscarinic agonist, decreased swim time; the animals quickly gave up (40 μg, −41%, n=8, t=3.53, p<0.01; and 80 μg, −66%, n=6, t=4.12, p<0.01). (B) Pirenzepine, an M1 antagonist, increased swimming escape attempts in the manner of an antidepressant, but note this is a local injection (17.5 μg, n=8, +39%, t=3.63, p<0.01; 35 μg, +40%, n=9, t=7.15, p<0.001). […] (D) Local gallamine, an M2 antagonist, decreased swim time (0.13 μg/side, −21%, n=7, t=3.72, p<0.01; 0.44 μg/side, −37%, n=8, t=2.95, p<0.05; 0.88 μg/side, −36%, n=7, t=4.64, p<0.01). Swimming time following Ringer is normalized to 100%, with each bar representing the mean of the normalized responses across subjects. Swimming time following a drug injection is expressed as a percentage of the swimming time following vehicle injection on a different day. Significant changes in the within-subject response to drug injections are indicated with asterisks (* p<0.05, ** p<0.01, *** p<0.001).
The Porsolt swim test is an animal model of depression widely used as a screen for drugs with potential antidepressant effects in humans and for elucidating the pharmacological mechanisms of action of antidepressant medications. For example, the following procedure may be used:
On the first day of this test (day 1), a rodent (typically a rat) is placed in a cylindrical water tank for 15 min. Then after 24 hours (day 2) and 48 hours (day 3), drug and Ringer are administered to the animal in counterbalanced order. Immediately following each injection, the animal is placed in the swim test for 10 min. The length of time it swims during the swim tests is recorded. “Swimming” is defined by escape behaviors (i.e. diving, rigorous paddling with all four legs, circling the tank, and clambering at the tank walls). ‘Immobility’ was scored as floating and treading water just enough to keep the nose above water. Typically, after the first swimming session, animals become behaviorally depressed as shown by swimming less on later test days (day 2 or 3). […] Antidepressants increase swimming without affecting locomotor activity, whereas non-antidepressant drugs such as certain psychostimulants may also decrease immobility, but also increase locomotor activity in the open field test. Therefore, to screen a potential antidepressant, the swim test is typically followed by test for hyperactivity in the open field.
Rats were placed in the 600 sec (10 min) swim test following injections of drugs in the NAcShell. When not swimming, rats floated or made minimal forepaw movements to keep their noses above water. Each rat received one drug counterbalanced with Ringer on a separate day. The shorter control swim times for the gallamine group, relative to groups that received other drugs, may have been due to a seasonal difference. Control injections, shown in the last line, were made 2 mm dorsal to the accumbens (Pirenzepine Ctrl). Asterisks indicate significant difference between drug and Ringer (* p<0.05; ** p<0.01; *** p<0.001).

[5] = test system: rats (NAcShell injection); experiment: locomotor activity in a photocell cage after drug injection in the NAcShell; assay type: in vivo, rat; conditions: 10 min following injection in NAcShell; arecoline 40 μg, pirenzepine 35 μg, scopolamine 1 μg, gallamine 0.88 μg
Protocol: FIG. 4 is a graph illustrating the effects of cholinergic drugs on locomotor activity in a photocell cage. Activity in the 10 min following drug injection in the NAcShell (black bars) is expressed as a percentage of control injections normalized to 100% (white bars).
FIG. 4 illustrates the effects of cholinergic drugs on locomotor activity in a photocell cage. Activity in the 10 min following drug injection in the NAc (black bars) is expressed as a percentage of control injections normalized to 100% (white bars).

[6] = test system: extracellular ACh in NAcShell; experiment: ACh efflux in NAcShell, infusion by reverse dialysis in freely moving rats; assay type: in vivo, rat
Protocol: To determine if the M2 drugs act presynaptically on autoreceptors controlling ACh release, freely moving rats received infusions of an M2 agonist or antagonist in the NAcShell for 20 min by reverse dialysis while extracellular ACh was measured.
To determine if the M2 drugs act presynaptically on autoreceptors controlling ACh release, freely moving rats received infusions of an M2 agonist or antagonist in the NAc for 20 min by reverse dialysis while extracellular ACh was measured.

[7] = test system: patients with major depression and bipolar disorder; conditions: cited from earlier work
[8] = test system: NMDA receptor (depressed humans); conditions: human trials (Zarate et al. 2006); cited from earlier work
[9] = 0.2 mM bilateral in NAc, fluoxetine on Day 2 (Ringer Day 3)
[10] = 0.2 mM bilateral in NAc, fluoxetine on Day 3 (Ringer Day 2)
[11] = 0.2 mM bilateral in NAc, on Day 2 or Day 3 (combined)
[12] = 0.5 mM bilateral in NAc, fluoxetine on Day 2 (Ringer Day 3)
[13] = 0.5 mM bilateral in NAc, fluoxetine on Day 3 (Ringer Day 2)
[14] = 0.5 mM bilateral in NAc, on Day 2 or Day 3 (combined)
[15] = 0.75 mM bilateral in NAc, fluoxetine on Day 2 (Ringer Day 3)
[16] = 0.75 mM bilateral in NAc, fluoxetine on Day 3 (Ringer Day 2)
[17] = 0.75 mM bilateral in NAc, on Day 2 or Day 3 (combined)

Structure (SMILES): NC(CCCP(=O)(O)O)C(=O)O (stereo not drawn) [AP-5]
- effect on depression, in words [1]: alleviate depression

Structure (SMILES): CNCCC(Oc1ccc(C(F)(F)F)cc1)c1ccccc1 (stereo not drawn) [Fluoxetine]
- swimming time greater than during Ringer ([2]; 1.0 mM local infusion in NAcShell, n=8): 18.9%
- swimming time during fluoxetine ([2]; 1.0 mM local infusion in NAcShell, n=8, Ringer 277±44 sec): 329 ± 45 s
- ACh outflow in the NAcShell, effect in words ([2]; during and following 1.0 mM fluoxetine infusion, vs Ringer infusion or pretest): substantially lower; also recorded: decreases the extracellular level of ACh
- immobility in the swim test, effect in words ([2]; unilateral infusion into NAcShell): decreases immobility
- Climbing score, FLU (rats (NAc infusion); [9]): 39 ± 12
- Immobility score, FLU (rats (NAc infusion); [9]): 66 ± 30
- Swimming score, FLU (rats (NAc infusion); [9]): 15 ± 17
- Climbing score, FLU (rats (NAc infusion); [10]): 60 ± 15
- Immobility score, FLU (rats (NAc infusion); [10]): 45 ± 13
- Swimming score, FLU (rats (NAc infusion); [10]): 14 ± 8
- Climbing score, FLU (rats (NAc infusion); [11]): 52 ± 10
- Immobility score, FLU (rats (NAc infusion); [11]): 53 ± 12
- Swimming score, FLU (rats (NAc infusion); [11]): 14 ± 7
- Climbing score, FLU (rats (NAc infusion); [12]): 45 ± 12
- Immobility score, FLU (rats (NAc infusion); [12]): 68 ± 9
- Swimming score, FLU (rats (NAc infusion); [12]): 6 ± 3
- Climbing score, FLU (rats (NAc infusion); [13]): 74 ± 10
- Immobility score, FLU (rats (NAc infusion); [13]): 39 ± 10
- Swimming score, FLU (rats (NAc infusion); [13]): 7 ± 6
- Climbing score, FLU (rats (NAc infusion); [14]): 61 ± 9
- Immobility score, FLU (rats (NAc infusion); [14]): 51 ± 8
- Swimming score, FLU (rats (NAc infusion); [14]): 7 ± 3
- Climbing score, FLU (rats (NAc infusion); [15]): 44 ± 10
- Immobility score, FLU (rats (NAc infusion); [15]): 62 ± 11
- Swimming score, FLU (rats (NAc infusion); [15]): 14 ± 7
- Climbing score, FLU (rats (NAc infusion); [16]): 57 ± 9
- Immobility score, FLU (rats (NAc infusion); [16]): 53 ± 7
- Swimming score, FLU (rats (NAc infusion); [16]): 10 ± 4
- Climbing score, FLU (rats (NAc infusion); [17]): 57 ± 9
- Immobility score, FLU (rats (NAc infusion); [17]): 53 ± 7
- Swimming score, FLU (rats (NAc infusion); [17]): 10 ± 4
- immobility in the swim test, effect in words (rats (NAc infusion); bilateral infusion into NAcShell, dose-dependently): decreases immobility
- swimming plus climbing scores (total escape efforts) ([3]; following chronic fluoxetine treatment, saline 42±11): 55±7
- basal ACh level in the NAcShell, effect in words ([3]; low dose subcutaneously, daily over 14 days, rats in the forced swimming test): normalizes the chronic elevation in basal ACh level
- locomotor activity in the open field, in words (rats (NAcShell infusion)): does not affect locomotor activity

Structure (SMILES): CN1[C@@H]2C[C@@H](OC(=O)[C@H](CO)c3ccccc3)C[C@H]1[C@@H]1O[C@@H]12 [Scopolamine]
- Drug (sec), mean swimming time ([4]; 0.5 μg/side in NAcShell): 306 ± 44 s
- Percent change of swimming time vs Ringer ([4]; 0.5 μg/side in NAcShell): −12%
- Time diff (sec), drug vs Ringer ([4]; 0.5 μg/side in NAcShell): -44 s
- Percent change of swimming time vs Ringer ([4]; 0.5 μg/side in NAcShell, listed as scopolamine): N.S.
- Drug (sec), mean swimming time ([4]; 1.0 μg/side in NAcShell): 541 ± 13*** sec
- Percent change of swimming time vs Ringer ([4]; 1.0 μg/side in NAcShell): +50%
- Time diff (sec), drug vs Ringer ([4]; 1.0 μg/side in NAcShell): +181 sec
- Percent change of swimming time vs Ringer ([4]; 1.0 μg/side in NAcShell, listed as scopolamine): +50%
- immobility in the swim test, effect in words ([4]; infusion into the NAcShell): decreases immobility
- locomotor activity vs Ringer, in words [5]: not significantly different from Ringer; also recorded: without altering activity in the open field
- extracellular ACh ([6]; 20 min infusion in NAcShell by reverse dialysis, oxotremorine 4 mM (hour following infusion), gallamine 1 mM, scopolamine 10 mM probe concentration): 220 % of baseline
- duration of the ACh increase (until return to baseline) ([6]; gallamine 1 mM: time following the infusion, scopolamine 10 mM): more than 100 min
- ACh level in the NAc, effect in words ([6]; inventor's data (Chau et al. 2001)): elevates ACh level in the NAc
- rate of remission in female patients ([7]; human trials): ≤ 71%
- duration of antidepressant/anti-anxiety effects ([7]; one single dose): more than 17 days
- time to reduction of depression and anxiety ([7]; one single dose, patients with major depression and bipolar disorder): 3 to 5 days

Structure (SMILES): C[C@]12N[C@H](Cc3ccccc31)c1ccccc12 [dizocilpine]
- effect on depression, in words [1]: alleviate depression

Structure (SMILES): CNC1(c2ccccc2Cl)CCCCC1=O (stereo not drawn) [ketamine]
- antidepressant effect, in words [8]: rapid antidepressant effect
